Reference: patent US10743540B2, “3-amino-1,2,4-triazine derivatives and their use for controlling undesired plant growth” (BAYER CROPSCIENCE AKTIENGESELLSCHAFT, priority 2016, dated 2020)

Experiments:
Type in all cases: in vivo
VERPE: Veronica persica [1] = test: Post-emergence herbicidal effect; conditions: application rate 320 g/ha, treated at one-leaf stage, assessed visually after about 3 weeks, 100% = plants have died
Experimental: (§1) [table] 2. Post-Emergence Herbicidal Effect and Crop Plant Compatibility Seeds of monocotyledonous and dicotyledonous weed and crop plants are laid out in sandy loam soil in wood-fiber pots, covered with soil and cultivated in a greenhouse under good growth conditions. 2 to 3 weeks after sowing, the test plants are treated at the one-leaf stage. The compounds of the invention, formulated in the form of wettable powders (WP) or as emulsion concentrates (EC), are then sprayed onto the green parts of the plants as aqueous suspension or emulsion at a water application rate equating to 600 to 800 L/ha with addition of 0.2% wetting agent. After the test plants have been left to stand in the greenhouse under optimal growth conditions for about 3 weeks, the action of the preparations is assessed visually in comparison to untreated controls (herbicidal action in percent (%): 100% activity=the plants have died, 0% activity=like control plants).

STEME: Stellaria media [2] = test: Post-emergence herbicidal effect; conditions: application rate 320 g/ha, treated at one-leaf stage, assessed visually after about 3 weeks, 100% = plants have died
Experimental: as §1

[3] = system: AMARE: Amaranthus retroflexus; test: Post-emergence herbicidal effect; conditions: application rate 320 g/ha, treated at one-leaf stage, assessed visually after about 3 weeks, 100% = plants have died
Experimental: as §1

VIOTR: Viola tricolor = test: Post-emergence herbicidal effect; conditions: application rate 320 g/ha, treated at one-leaf stage, assessed visually after about 3 weeks, 100% = plants have died
Experimental: as §1

[4] = system: ALOMY: Alopecurus myosuroides; test: Pre-emergence herbicidal effect; conditions: application rate 320 g/ha, scored visually after 3 weeks, 100% = plants have died, 0% = like control plants
Description: (§2) 1. Pre-Emergence Herbicidal Effect and Crop Plant Compatibility Seeds of monocotyledonous and dicotyledonous weed plants and crop plants are laid out in sandy loam soil in wood-fiber pots and covered with soil. The compounds of the invention, formulated in the form of wettable powders (WP) or as emulsion concentrates (EC), are then applied to the surface of the covering soil as aqueous suspension or emulsion at a water application rate equating to 600 to 800 L/ha with addition of 0.2% wetting agent. After the treatment, the pots are placed in a greenhouse and kept under good growth conditions for the trial plants. The damage to the test plants is scored visually after a test period of 3 weeks by comparison with untreated controls (herbicidal activity in percent (%): 100% activity=the plants have died, 0% activity=like control plants). [table]

[5] = system: MATIN: Matricaria inodora; test: Pre-emergence herbicidal effect; conditions: application rate 320 g/ha, scored visually after 3 weeks, 100% = plants have died, 0% = like control plants
Description: as §2

VERPE: Veronica persica [6] = test: Pre-emergence herbicidal effect; conditions: application rate 320 g/ha, scored visually after 3 weeks, 100% = plants have died, 0% = like control plants
Description: as §2

STEME: Stellaria media [7] = test: Pre-emergence herbicidal effect; conditions: application rate 320 g/ha, scored visually after 3 weeks, 100% = plants have died, 0% = like control plants
Description: as §2

SETVI: Setaria viridis = test: Pre-emergence herbicidal effect; conditions: application rate 320 g/ha, scored visually after 3 weeks, 100% = plants have died, 0% = like control plants
Description: as §2

[8] = system: ECHCG: Echinochloa crus-galli; test: Pre-emergence herbicidal effect; conditions: application rate 320 g/ha, scored visually after 3 weeks, 100% = plants have died, 0% = like control plants
Description: as §2

[9] = system: POLCO: Polygonum convolvulus; test: Pre-emergence herbicidal effect; conditions: application rate 320 g/ha, scored visually after 3 weeks, 100% = plants have died, 0% = like control plants
Description: as §2

[10] = system: LOLMU: Lolium multiflorum; test: Pre-emergence herbicidal effect; conditions: application rate 320 g/ha, scored visually after 3 weeks, 100% = plants have died, 0% = like control plants
Description: as §2

[11] = system: ABUTH: Abutilon theophrasti; test: Pre-emergence herbicidal effect; conditions: application rate 320 g/ha, scored visually after 3 weeks, 100% = plants have died, 0% = like control plants
Description: as §2

Q: `Nc1nc(N[C@@H]2CCCc3ccccc32)nnc1Cl` [Example 1.4] was tested. Which “Herbicidal activity with respect to [%] VERPE” value (“Herbicidal activity … [%] VERPE” below) (VERPE: Veronica persica [1]) did it give?
A: 90%

Q: And the “Herbicidal activity with respect to [%] STEME” value (from here on “Herbicidal activity … [%] STEME”) (STEME: Stellaria media [2])?
A: 90%

Q: What about the “Herbicidal activity with respect to [%] AMARE” value [3] of the same compound?
A: 90%

Q: What about the “Herbicidal activity with respect to [%] VIOTR” value (“Herbicidal activity … [%] VIOTR” below) (VIOTR: Viola tricolor) of the same compound?
A: 80%

Q: What about the “Herbicidal activity with respect to [%] ALOMY” value (shortened to “Herbicidal activity … [%] ALOMY”) [4] of the same compound?
A: 100%

Q: What about the “Herbicidal activity with respect to [%] MATIN” value (“Herbicidal activity … [%] MATIN” for short) [5] of the same compound?
A: 100%

Q: What about the “Herbicidal activity … [%] VERPE” value (VERPE: Veronica persica [6]) of the same compound?
A: 100%

Q: And the “Herbicidal activity … [%] STEME” value (STEME: Stellaria media [7])?
A: 100%

Q: What about the “Herbicidal activity with respect to [%] SETVI” value (“Herbicidal activity … [%] SETVI” for short) (SETVI: Setaria viridis) of the same compound?
A: 100%

Q: And the “Herbicidal activity with respect to [%] ECHCG” value (“Herbicidal activity … [%] ECHCG” for short) [8]?
A: 100%

Q: And the “Herbicidal activity with respect to [%] POLCO” value (“Herbicidal activity … [%] POLCO” for short) [9]?
A: 100%

Q: What about the “Herbicidal activity with respect to [%] LOLMU” value (“Herbicidal activity … [%] LOLMU” for short) [10] of the same compound?
A: 100%

Q: How did the “Herbicidal activity … [%] VERPE” value (VERPE: Veronica persica [1]) turn out when `N#Cc1nnc(N[C@@H]2CCCc3ccccc32)nc1N` [Example 1.37] was run?
A: 100%

Q: What about the “Herbicidal activity … [%] STEME” value (STEME: Stellaria media [2]) of the same compound?
A: 100%

Q: What about the “Herbicidal activity … [%] ALOMY” value [4] of the same compound?
A: 100%

Q: And the “Herbicidal activity … [%] MATIN” value [5]?
A: 100%

Q: And the “Herbicidal activity … [%] VERPE” value (VERPE: Veronica persica [6])?
A: 100%

Q: What about the “Herbicidal activity … [%] STEME” value (STEME: Stellaria media [7]) of the same compound?
A: 100%

Q: And the “Herbicidal activity … [%] SETVI” value (SETVI: Setaria viridis)?
A: 100%

Q: And the “Herbicidal activity … [%] ECHCG” value [8]?
A: 100%

Q: And the “Herbicidal activity … [%] POLCO” value [9]?
A: 100%

Q: What about the “Herbicidal activity … [%] LOLMU” value [10] of the same compound?
A: 100%

Q: Which results are given for `CNC(=O)c1nnc(N[C@H]2c3cc(C)ccc3C[C@@H]2C)nc1N` [Example 1.41]?
A: Herbicidal activity with respect to [%] VERPE (VERPE: Veronica persica [1]): 100%; Herbicidal activity with respect to [%] AMARE [3]: 80%; Herbicidal activity with respect to [%] VIOTR (VIOTR: Viola tricolor): 80%; Herbicidal activity with respect to [%] ALOMY [4]: 100%; Herbicidal activity with respect to [%] MATIN [5]: 100%; Herbicidal activity with respect to [%] VERPE (VERPE: Veronica persica [6]): 100%; Herbicidal activity with respect to [%] STEME (STEME: Stellaria media [7]): 100%; Herbicidal activity with respect to [%] SETVI (SETVI: Setaria viridis): 100%; Herbicidal activity with respect to [%] ECHCG [8]: 100%; Herbicidal activity with respect to [%] POLCO [9]: 100%; Herbicidal activity with respect to [%] LOLMU [10]: 100%

Q: Which “Herbicidal activity … [%] VERPE” value (VERPE: Veronica persica [1]) does the source give for `C[S+]([O-])c1nnc(N[C@@H]2CCCc3ccccc32)nc1N` (stereo partly shown) [Example 1.65] here?
A: 80%

Q: And the “Herbicidal activity … [%] STEME” value (STEME: Stellaria media [2])?
A: 100%

Q: What about the “Herbicidal activity … [%] VIOTR” value (VIOTR: Viola tricolor) of the same compound?
A: 80%

Q: What about the “Herbicidal activity … [%] MATIN” value [5] of the same compound?
A: 100%

Q: What about the “Herbicidal activity … [%] VERPE” value (VERPE: Veronica persica [6]) of the same compound?
A: 100%

Q: And the “Herbicidal activity … [%] STEME” value (STEME: Stellaria media [7])?
A: 100%

Q: And the “Herbicidal activity … [%] SETVI” value (SETVI: Setaria viridis)?
A: 100%

Q: What about the “Herbicidal activity … [%] ECHCG” value [8] of the same compound?
A: 100%

Q: And the “Herbicidal activity … [%] POLCO” value [9]?
A: 100%

Q: What about the “Herbicidal activity … [%] LOLMU” value [10] of the same compound?
A: 100%

Q: And the “Herbicidal activity with respect to [%] ABUTH” value [11]?
A: 90%

Q: How did the “Herbicidal activity … [%] STEME” value (STEME: Stellaria media [2]) turn out when `Cc1ccc2c(c1)[C@H](Nc1nnc(C(=O)N(C)C)c(N)n1)CC2` [Example 1.77] was run?
A: 100%

Q: What about the “Herbicidal activity … [%] VIOTR” value (VIOTR: Viola tricolor) of the same compound?
A: 90%

Q: And the “Herbicidal activity … [%] ALOMY” value [4]?
A: 100%

Q: What about the “Herbicidal activity … [%] MATIN” value [5] of the same compound?
A: 100%

Q: What about the “Herbicidal activity … [%] SETVI” value (SETVI: Setaria viridis) of the same compound?
A: 100%

Q: What about the “Herbicidal activity … [%] ECHCG” value [8] of the same compound?
A: 100%

Q: What about the “Herbicidal activity … [%] POLCO” value [9] of the same compound?
A: 100%

Q: And the “Herbicidal activity with respect to [%] ABUTH” value [11]?
A: 90%
